Values quoted from earlier work in patent US11331424B2, “Apparatus, systems and methods for delivery of medication to the brain to treat neurological conditions” (InCube Labs, LLC, priority 2009, dated 2022).
Read-outs that look alike come from different tables or passages of the source.

Legend:
[1] = test system: evoked and spontaneous epileptic neural activity; conditions: epileptic animal models
[2] = test system: evoked and spontaneous epileptic neural activity; conditions: human patients
[3] = many patients; significant = more than about 10% increase in urine production or more than about 5% decrease in plasma electrolyte
[4] = oral administration

threshold dosage which produces a significant increase in diuresis and/or significant decrease in the patient's electrolyte level(s) [3]: about 20 mg
time to get into the patient's blood stream [4]: ≥ 30 min
Compound: NS(=O)(=O)c1cc(C(=O)O)c(NCc2ccco2)cc1Cl [Furosemide]
effect on evoked and spontaneous epileptic neural activity and subsequent cortical spreading depression [1]: block evoked and spontaneous epileptic neural activity and subsequent cortical spreading depression
effect on evoked and spontaneous epileptic neural activity and subsequent cortical spreading depression [2]: block evoked and spontaneous epileptic neural activity and subsequent cortical spreading depression
